The test system of test [1] is Dictyostelium development. The experiment in a line: Dictyostelium development. Type of test: cell-based, Dictyostelium discoideum. The following applies: concentrations found in plasma of patients (0.28-0.7 mM). The protocol: Screening of a REMI library was carried out as previously described (Kuspa & Loomis, 2006) using A×2 background, with VPA resistant mutants selected for the ability to develop in the presence of 1 mM VPA on R. planticola. Identification of the ablated gene, enabled the identified PLAa (DDB_G0278525; SEQ ID NO: 16) to be recapitulated using by homologous recombination of a knockout cassette. Primers used for amplifying region within the open reading frame of the gene were (5′ […] (SEQ ID NO: 17) and 3′ […] (SEQ ID NO: 18), cloned by pCR2.1 TOPO (Invitrogen Ltd)), cloned into pUC19 using EcoRI digestion, and Sinai digested fragment from pBLPblp (Falx et al, 2004) was inserted into the EcoRV site of the insert. Genetic ablation was confirmed by PCR analysis. […] Development images were observed using a Leica CLS 150× microscope and images recorded using QICAM FAST 1394 camera. Fatty acid activation was determined by the method established by Wilson et al. (Wilson et al, 1982) with slight modifications. […] The organic phase was discarded and the aqueous phase was washed six times with 300 μl of n-heptane to remove non-activated fatty acids before the radioactivity of the acyl-CoA thioester remaining in the aqueous phase was determined in 2 ml of Lumasafe™ Plus fluid (Lumac LSC, Groningen, The Netherlands) in a scintillation counter.

For test [2], the system named is fatty acid CoA activation in Dictyostelium cell extracts. The experiment in a line: Fatty acid activation (palmitic acid to PaA-CoA) in cell extracts. Type of test: biochemical, Dictyostelium discoideum. The following applies: VPA 1.0 mM with cell extracts or 10 min, 1 mM pre-treatment of cells. The protocol: Screening of a REMI library was carried out as previously described (Kuspa & Loomis, 2006) using A×2 background, with VPA resistant mutants selected for the ability to develop in the presence of 1 mM VPA on R. planticola. Identification of the ablated gene, enabled the identified PLAa (DDB_G0278525; SEQ ID NO: 16) to be recapitulated using by homologous recombination of a knockout cassette. Primers used for amplifying region within the open reading frame of the gene were (5′ […] (SEQ ID NO: 17) and 3′ […] (SEQ ID NO: 18), cloned by pCR2.1 TOPO (Invitrogen Ltd)), cloned into pUC19 using EcoRI digestion, and Sinai digested fragment from pBLPblp (Falx et al, 2004) was inserted into the EcoRV site of the insert. Genetic ablation was confirmed by PCR analysis. Developmental resistance to VPA was assessed by plating cells (1×10^6) on 47 mm nitrocellulose filters (Millipore) soaked in phosphate buffer containing either 1 mM VPA or control, and development was recorded after 30 h unless otherwise stated. Development images were observed using a Leica CLS 150× microscope and images recorded using QICAM FAST 1394 camera. Fatty acid activation was determined by the method established by Wilson et al. (Wilson et al, 1982) with slight modifications. […]

Here are results for one molecule from patent US11491127B2, “Therapeutic use of compounds” (UCL BUSINESS LTD, priority 2010, dated 2022).

In the case of `CCCC(CCC)C(=O)O` [VPA, 2-propylpentanoic acid, reference compound], in test [1], the “effect on development of Dictyostelium” value is on record as “inhibits the development”. Besides, in test [2], the “effect on fatty acid activation (PaA-CoA)” value was “no effect”.
